Assay results taken from patent US20230167127A1, “COMPOUNDS AND THEIR USE IN THE TREATMENT OF BACTERIAL INFECTION” (Hoffmann-La Roche Inc., priority 2020, published 2023).

These compounds were tested on Escherichia coli ATCC 25922 (assay: 50% growth inhibitory concentration (IC50) determination, Iso-Sensitest broth dilution). Conditions: Escherichia coli, ATCC25922, 16 h, strain Escherichia coli ATCC 25922; 10-point broth dilution, optical density at 600 nm over 16 h; read-out: Escherichia coli growth inhibition IC50.
Format: cell-based
Method in brief: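 Growth was tracked as optical density at 600 nm every 20 minutes for 16 h at 35±2° C. Compounds from DMSO stocks were serially diluted twofold over 10 points (e.g. 50–0.097 μM final) in Iso-Sensitest broth. Inhibition computed in log-phase growth to give IC50.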
`N#Cc1cccc2c1CC(CN(CCN)CCC1CN(c3ccc4c(n3)NC(=O)CO4)C(=O)O1)C2` (centres unmarked) [Example 233, 2-[[2-Aminoethyl-[2-[2-oxo-3-(3-oxo-4H-pyrido[3,2-b][1,4]oxazin-6-yl)-1,3-oxazolidin-5-yl]ethyl]amino]methyl]-2,3-dihydro-1H-indene-4-carbonitrile; formic acid] was tested, and the IC50 was 942 nM.
`NC1c2cccc(Cl)c2CC1CCNCC1CN(c2cnc3c(n2)NC(=O)CO3)C(=O)O1` (racemic) [Example 266, 6-[2-Oxo-5-[[2-[rac-1,2-trans-1-amino-4-chloro-2,3-dihydro-1H-inden-2-yl]ethylamino]methyl]-1,3-oxazolidin-3-yl]-4H-pyrazino[2,3-b][1,4]oxazin-3-one] was tested, and the IC50 was 206 nM.
For `Cc1ncc(F)c2c1CC(NC(C)CCC1CN(c3cnc4c(n3)NC(=O)CO4)C(=O)O1)C2` (single isomer, unassigned; isomer a) [Example 333, 6-[5-[3-[(4-fluoro-1-methy1-6,7-dihydro-5H-cyclopenta[c]pyridin-6-yl)amino]butyl]-2-oxo-1,3-oxazolidin-3-yl]-4H-pyrazino[2,3-b][1,4]oxazin-3-one, Isomer A], the IC50 was 265 nM.
With `CNC(=O)COc1ncc2c(c1C)CC(CNCCC1CN(c3ccc4c(n3)NC(=O)CO4)C(=O)O1)C2` (centres unmarked) [Example 223, N-methyl-2-((4-methyl-6-(((2-(2-oxo-3-(3-oxo-3,4-dihydro-2H-pyrido[3,2-b][1,4]oxazin-6-yl)oxazolidin-5-yl)ethyl)amino)methyl)-6,7-dihydro-5H-cyclopenta[c]pyridin-3-yl)oxy)acetamide] the IC50 was 389 nM.
`CNC(=O)COc1ccc2c(c1C#N)CC(CNCCC1CN(c3ccc4c(n3)NC(=O)CO4)C(=O)O1)C2` (centres unmarked) [Example 48, 2-[[4-cyano-2-[[2-[2-oxo-3-(3-oxo-4H-pyrido[3,2-b][1,4]oxazin-6-yl)-1,3-oxazolidin-5-yl]ethylamino]methyl]-2,3-dihydro-1H-inden-5-yl]oxy]-N-methylacetamide] gave an IC50 of 106 nM.
`Cc1ncc(F)c2c1CC(CNCCc1nn(-c3cnc4c(n3)NC(=O)CO4)c(=O)o1)C2` (centres unmarked) [Example 335, 6-[5-[2-[(4-fluoro-1-methyl-6,7-dihydro-5H-cyclopenta[c]pyridin-6-yl)methylamino]ethyl]-2-oxo-1,3,4-oxadiazol-3-yl]-4H-pyrazino[2,3-b][1,4]oxazin-3-one] gave an IC50 of 225 nM.
With `Cc1c(F)cnc2c1CC(CNCCC1CN(c3cnc4c(n3)NC(=O)CO4)C(=O)O1)C2` (centres unmarked) [Example 299, 6-[5-[2-[(3-fluoro-4-methyl-6,7-dihydro-5H-cyclopenta[b]pyridin-6-yl)methylamino]ethyl]-2-oxo-1,3-oxazolidin-3-yl]-4H-pyrazino[2,3-b][1,4]oxazin-3-one] the IC50 was < 97.7 nM.
Work on `Cc1ncc(Cl)c2c1CC(CNCCC1CN(c3cnc4c(n3)NC(=O)CO4)C(=O)O1)C2N` (racemic) [Example 263, 6-[2-oxo-5-[2-[[rac-5,6-trans-5-amino-4-chloro-1-methyl-6,7-dihydro-5H-cyclopenta[c]pyridin-6-yl]methylamino]ethyl]-1,3-oxazolidin-3-yl]-4H-pyrazino[2,3-b][1,4]oxazin-3-one] yielded an IC50 of 127 nM.
With `Cc1nnc(C)c2c1CC(CNCCC1CN(c3ccc4c(n3)NC(=O)CO4)C(=O)O1)C2` (centres unmarked) [Example 284, 6-[5-[2-[(1,4-dimethyl-6,7-dihydro-5H-cyclopenta[d]pyridazin-6-yl)methylamino]ethyl]-2-oxo-1,3-oxazolidin-3-yl]-4H-pyrido[3,2-b][1,4]oxazin-3-one] the IC50 was 1270 nM.
For `NC1c2cccc(Cl)c2CC1CNCCc1nn(-c2cnc3c(n2)NC(=O)CO3)c(=O)o1` (racemic) [Example 337, 6-[2-oxo-5-[2-[[rac-1,2-trans-1-amino-4-chloro-2,3-dihydro-1H-inden-2-yl]methylamino]ethyl]-1,3,4-oxadiazol-3-yl]-4H-pyrazino[2,3-b][1,4]oxazin-3-one; formic acid], the IC50 was 1080 nM.
In the case of `NC1c2c(Cl)cccc2CC1CNCCC1CN(c2ccc3c(n2)NC(=O)CO3)C(=O)O1` (racemic) [Example 168, 6-[2-oxo-5-[2-[[rac-1,2-trans-1-amino-7-chloro-2,3-dihydro-1H-inden-2-yl]methylamino]ethyl]-1,3-oxazolidin-3-yl]-4H-pyrido[3,2-b][1,4]oxazin-3-one; formic acid], the IC50 is reported as < 97.7 nM.
Work on `Cc1ncc(F)c2c1CC(CNCCC1(CN)CN(c3ccc4c(n3)NC(=O)CO4)C(=O)O1)C2` (centres unmarked) [Example 242, 6-[5-(Aminomethyl)-5-[2-[(4-fluoro-1-methyl-6,7-dihydro-5H-cyclopenta[c]pyridin-6-yl)methylamino]ethyl]-2-oxo-1,3-oxazolidin-3-yl]-4H-pyrido[3,2-b][1,4]oxazin-3-one] yielded an IC50 of 778 nM.
Compound `N#Cc1nccc2c1CC(CNCCC1CN(c3ccc4c(n3)NC(=O)CO4)C(=O)O1)C2` (centres unmarked) [Example 90, 6-[[2-[2-oxo-3-(3-oxo-4H-pyrido[3.2-b][1,4]oxazin-6-yl)-1,3-oxazolidin-5-yl]ethylamino]methyl]-6,7-dihydro-5H-cyclopenta[c]pyridine-1-carbonitrile; formic acid] has an IC50 of 170 nM.
In the case of `N#Cc1cccc2c1CC(CNCCC1CN(c3ccc4c(n3)NC(=O)CS4)C(=O)O1)C2N` (racemic) [Example 247, rac-1,2-trans-1-amino-2-[[2-[2-oxo-3-(3-oxo-4H-pyrido[3,2-b][1,4]thiazin-6-yl)-1,3-oxazolidin-5-yl]ethylamino]methyl]-2,3-dihydro-1H-indene-4-carbonitrile], the IC50 is reported as < 97.7 nM.
With `NC1c2cccc(F)c2CC1CNCCC1CN(c2cnc3c(n2)NC(=O)CO3)C(=O)O1` (racemic) [Example 164, 6-[5-[2-[(rac-1,2-trans-1-amino-4-fluoro-2,3-dihydro-1H-inden-2-yl)methylamino]ethyl]-2-oxo-1,3-oxazolidin-3-yl]-4H-pyrazino[2,3-b][1,4]oxazin-3-one; formic acid] the IC50 was < 97.7 nM.
With `Cc1ccnc2c1CC(NCCCC1CN(c3ccc4c(n3)NC(=O)CO4)C(=O)O1)C2` (centres unmarked) [Example 27, 6-[5-[3-[(4-methyl-6,7-dihydro-5H-cyclopenta[b]pyridin-6-yl)amino]propyl]-2-oxo-1,3-oxazolidin-3-yl]-4H-pyrido[3,2-b][1,4]oxazin-3-one] the IC50 was 582 nM.
In the case of `Cc1ccnc2c1CC(CNCCC1CN(c3ccc4c(n3)NC(=O)CO4)C(=O)O1)C2` (centres unmarked) [Example 89, 6-[5-[2-[(4-methyl-6,7-dihydro-5H-cyclopenta[b]pyridin-6-yl)methylamino]ethyl]-2-oxo-1,3-oxazolidin-3-yl]-4H-pyrido[3,2-b][1,4]oxazin-3-one], the IC50 is reported as 304 nM.
`N#Cc1cc(OCC(N)=O)cc2c1CC(CNCCC1CN(c3cnc4c(n3)NC(=O)CO4)C(=O)O1)C2` (centres unmarked) [Example 414, 2-[[7-cyano-2-[[2-[2-oxo-3-(3-oxo-4H-pyrazino[2,3-b][1,4]oxazin-6-yl)-1,3-oxazolidin-5-yl]ethylamino]methyl]-2,3-dihydro-1H-inden-5-yl]oxy]acetamide] gave an IC50 of 127 nM.
Compound `Cc1ncc(F)c2c1CC(N[C@H]1CC[C@@]3(CC1)CN(c1cnc4c(n1)NC(=O)CO4)C(=O)O3)C2` (some centres unmarked) [Example 298] has an IC50 of 369 nM.
`Cc1nonc1COc1cc(C#N)c2c(c1)CC(CNCCC1CN(c3cnc4c(n3)NC(=O)CO4)C(=O)O1)C2` (centres unmarked) [Example 392, 6-[(4-methyl-1,2,5-oxadiazol-3-yl)methoxy]-2-[[2-[2-oxo-3-(3-oxo-4H-pyrazino[2,3-b][1,4]oxazin-6-yl)-1,3-oxazolidin-5-yl]ethylamino]methyl]-2,3-dihydro-1H-indene-4-carbonitrile] was tested, and the IC50 was < 97.7 nM.
For `CNC(=O)COc1ccc2c(c1Cl)CC(CNCCC1CN(c3ccc4c(n3)NC(=O)CO4)C(=O)O1)C2` (centres unmarked) [Example 108, 2-[[4-chloro-2-[[2-[2-oxo-3-(3-oxo-4H-pyrido[3,2-b][1,4]oxazin-6-yl)-1,3-oxazolidin-5-yl]ethylamino]methyl]-2,3-dihydro-1H-inden-5-yl]oxy]-N-methylacetamide], the IC50 was < 97.7 nM.
With `CC(C)(N)COc1cc(C#N)c2c(c1)CC(CN1CCC3(CC1)CN(c1cnc4c(n1)NC(=O)CO4)C(=O)O3)C2` (centres unmarked) [Example 407, 6-(2-amino-2-methylpropoxy)-2-[[2-oxo-3-(3-oxo-4H-pyrazino[2,3-b][1,4]oxazin-6-yl)-1-oxa-3,8-diazaspiro[4.5]decan-8-yl]methyl]-2,3-dihydro-1H-indene-4-carbonitrile] the IC50 was < 97.7 nM.
In the case of `Nc1nnnn1CCOc1cc(F)c2c(c1)CC(CNCCC1CN(c3cnc4c(n3)NC(=O)CO4)C(=O)O1)C2` (centres unmarked) [Example 294, 6-[5-[2-[[6-[2-(5-aminotetrazol-1-yl)ethoxy]-4-fluoro-2,3-dihydro-1H-inden-2-yl]methylamino]ethyl]-2-oxo-1,3-oxazolidin-3-yl]-4H-pyrazino[2,3-b][1,4]oxazin-3-one; formic acid], the IC50 is reported as 727 nM.
`N#Cc1cc(OCC2CCN2)cc2c1CC(CNCCC1CN(c3ccc4c(n3)NC(=O)CO4)C(=O)O1)C2` (centres unmarked) [Example 187, 6-(azetidin-2-ylmethoxy)-2-[[2-[2-oxo-3-(3-oxo-4H-pyrido[3,2-b][1,4]oxazin-6-yl)-1,3-oxazolidin-5-yl]ethylamino]methyl]-2,3-dihydro-1H-indene-4-carbonitrile] was tested, and the IC50 was 121 nM.
`Cc1ncc(F)c2c1CC(CN1CC(C3CN(c4cnc5c(n4)NC(=O)CO5)C(=O)O3)C1)C2` (centres unmarked) [Example 75, 6-[5-[1-[(4-fluoro-1-methyl-6,7-dihydro-5H-cyclopenta[c]pyridin-6-yl)methyl]azetidin-3-yl]-2-oxo-oxazolidin-3-yl]-4H-pyrazino[2,3-b][1,4]oxazin-3-one; formic acid] was tested, and the IC50 was 230 nM.

Same assay, conditions: strain Escherichia coli ATCC 25922; 10-point broth dilution, optical density at 600 nm over 16 h; read-out: Escherichia coli growth inhibition IC50
`Cc1nccc2c1CC(NCCCc1cn(-c3cnc4c(n3)NC(=O)CO4)c(=O)o1)C2` (single isomer, unassigned; enantiomer b) [Example 370, 6-[5-[3-[(1-Methyl-6,7-dihydro-5H-cyclopenta[c]pyridin-6-yl)amino]propyl]-2-oxo-1,3-oxazol-3-yl]-4H-pyrazino[2,3-b][1,4]oxazin-3-one; formic acid, Enantiomer B] showed an IC50 of 195 nM.
